Source: publication PMC11505594, “Design, Synthesis, and Anti-Melanogenic Activity of 2-Mercaptomethylbenzo[d]imidazole Derivatives Serving as Tyrosinase Inhibitors: An In Silico, In Vitro, and In Vivo Exploration” (Antioxidants, 2024)
Read-outs that look alike come from different tables or passages of the source. Each block holds one compound with its values, some of them ahead of it.

Assays:
[1] = Reactive oxygen species removal activity assay (SIN-1, DCFH); conditions: test samples 40 μM; SIN-1 10 μM
Procedure: To assess reactive oxygen species (ROS) removal activity, a DCFH solution was prepared by mixing 50 μL DCFH-DA (1.25 mM), 50 μL esterase (0.6 unit/μL), and 4.9 mL phosphate buffer (50 mM) and maintained in the dark for 30 min. The SIN-1 solution (10 μL) was added to each well of a 96-black well that contained the test sample (10 μL; 2-MMBI derivatives 1–10 and Trolox [positive material]) and phosphate buffer (180 μL). 2-MMBI derivatives, Trolox, and SIN-1 were exposed at final concentrations of 40, 40, and 10 μM, respectively. The prepared DCFH solution (50 μL) was added to each well after 10 min. The fluorescence intensity of 2′,7′-dichlorofluorescein in the wells was measured at 535 nm using a microplate reader (Berthold Advances GmbH & Co., Bad Wildbad, Germany) with an excitation wavelength of 485 nm. Each experiment was conducted independently four times.

[2] = Copper(II) ion-chelating activity using pyrocatechol violet; conditions: test samples 100 μM, pH 6.0
Procedure: Copper(II) ion-chelating activity was measured using pyrocatechol violet reagent, a copper(II)-chelating agent. Copper(II) sulfate solution (10 μL, 1 mg/mL) was added to each well of a 96-well microplate containing acetic acid–sodium acetate buffer (280 μL, 50 mM [pH 6.0]), 2-MMBI derivative (1–10; 10 μL, 100 μM as a final concentration), and pyrocatechol violet (6 μL, 4 mM). Absorbance was measured at 632 nm using a VersaMax™ reader after the microplate was incubated for 20 min at 24 °C. Cu(II) ion-chelating activity (%) = 100 × [(Abscon − Abssam)/Abscon] where Abscon and Abssam are the absorbances of the control and samples, respectively. Each experiment was independently performed in triplicate.

zebrafish larvae = test: Melanogenesis (depigmentation) assay using zebrafish embryos; assay type: in vivo
Procedure: To assess depigmentation in vivo, wild-type zebrafish (Danio rerio) embryos were acquired free of charge from the Zebrafish Center for Disease Modeling (ZCDM) located at Chungnam National University in Daejeon, Republic of Korea. The zebrafish were raised in tanks maintained at 28 °C in the ZCDM. The tanks were oxygenated, and the tank lights were turned off for 10 h and on for 14 h. The zebrafish embryos used for in vivo depigmentation experiments were obtained through natural mating. The E3 solution for zebrafish embryos was prepared by dissolving 19.9 mg magnesium sulfate, 6.4 mg potassium chloride, 18.3 mg calcium chloride, and 146.1 mg sodium chloride in 500 mL distilled water. E3-MB (methylene blue) solution was prepared by adding MB to the E3 solution to create a 0.001% MB solution. The acquired zebrafish embryos were transferred to a culture dish containing the E3-MB solution. The culture dish was incubated at 28 °C until zebrafish embryos were used. Since zebrafish embryos are sensitive and can be easily killed by the chorion removal process 20 h post-fertilization (20 hpf), the chorion was removed at 24 hpf through treatment with pronase (Sigma-Aldrich, St. Louis, MO, USA). Five dechorionated zebrafish embryos were transferred to each well of 48-well microplates containing 250 μL E3 solution. […] Zebrafish larvae were anesthetized with tricaine at 76 hpf and placed on a 1% methylcellulose block to determine the degree of zebrafish larva depigmentation. Dorsal and lateral images of the zebrafish larvae were acquired using an SMZ745T microscope (Nikon, Tokyo, Japan). The pigmented areas of the dorsal and lateral images were obtained using CS analyzer 3.0 image analysis software (ATTO, Tokyo, Japan). Each assay (n = 7) was independently performed two times.

mushroom TYR [3] = molecular target: T1, mushroom TYR (Agaricus bisporus, UniProt C7FF04); test: Kinetic studies on mushroom TYR (Lineweaver–Burk and Dixon plots); assay type: biochemical; conditions: L-dopa as substrate
T1 sequence (C7FF04 2-392): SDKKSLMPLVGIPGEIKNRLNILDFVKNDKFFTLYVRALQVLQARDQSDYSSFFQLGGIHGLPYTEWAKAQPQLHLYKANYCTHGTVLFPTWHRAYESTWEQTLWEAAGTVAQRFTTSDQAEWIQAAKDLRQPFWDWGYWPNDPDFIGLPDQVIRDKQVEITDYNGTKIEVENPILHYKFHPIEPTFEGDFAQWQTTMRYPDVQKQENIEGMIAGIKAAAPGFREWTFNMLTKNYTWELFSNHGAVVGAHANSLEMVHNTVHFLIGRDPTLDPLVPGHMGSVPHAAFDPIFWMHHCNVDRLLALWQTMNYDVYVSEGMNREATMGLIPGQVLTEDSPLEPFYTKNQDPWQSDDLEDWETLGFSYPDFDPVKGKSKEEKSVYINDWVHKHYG
Procedure: Kinetic experiments were performed to obtain Lineweaver–Burk plots for the analysis of mushroom TYR kinetics. Mushroom TYR solution (20 μL, 150 units/mL) was added to each well of a 96-well microplate containing 2-MMBI derivatives (10 μL; 0, 7.5, 15, and 30 μM for 1; 0, 5, 10, and 20 μM for 3 and 8; and 0, 12.5, 25, and 50 μM for 9) and a substrate solution (170 μL) composed of sodium phosphate buffer (17.2 mM; pH 6.5) and L-dopa (various concentrations: 0.5, 1, 2, 4, 8, and 16 mM). […] Lineweaver–Burk plots for each 2-MMBI derivative were obtained by plotting the value of 1/[substrate] against the value of (min/ΔOD475). Lineweaver–Burk plots were transformed into corresponding Dixon plots by plotting the value of (min/ΔOD475) against the value of the 2-MMBI derivative concentration.

B16F10 cells = test: Melanin content measurement assay in B16F10 cells; assay type: cell-based, murine; conditions: α-MSH 1 μM plus IBMX 200 μM, 72 h
Procedure: A 6-well plate containing 5 × 10^3 B16F10 cells per well was incubated at 37 °C and 5% CO2 for 1 day. […] After 1 h, 1 μM α-MSH and 200 μM IBMX were added to each well, and the plate was subsequently incubated at 37 °C and 5% CO2 for 72 h. The cells were exposed to […] 1N-NaOH solution and cultured at 60 °C for 1 h after washing with PBS. The lysates were transferred to each well of a 96-well plate, and the optical density at 405 nm was recorded using a VersaMax™ reader. […] Each assay was independently performed three times.

B16F10 cellular TYR = molecular target: T2, B16F10 cellular TYR (Mus musculus, UniProt P11344); test: TYR activity assay in B16F10 cells; assay type: cell-based, murine; conditions: 2, 5, and 10 μM; α-MSH 1 μM plus IBMX 200 μM; 72 h
T2 construct: The in situ cellular TYR activities of the 2-MMBI derivatives were investigated using B16F10 cells; endogenous in cells; host or cells: B16F10 murine melanoma cells stimulated with alpha-MSH and IBMX
T2 sequence (P11344 19-533): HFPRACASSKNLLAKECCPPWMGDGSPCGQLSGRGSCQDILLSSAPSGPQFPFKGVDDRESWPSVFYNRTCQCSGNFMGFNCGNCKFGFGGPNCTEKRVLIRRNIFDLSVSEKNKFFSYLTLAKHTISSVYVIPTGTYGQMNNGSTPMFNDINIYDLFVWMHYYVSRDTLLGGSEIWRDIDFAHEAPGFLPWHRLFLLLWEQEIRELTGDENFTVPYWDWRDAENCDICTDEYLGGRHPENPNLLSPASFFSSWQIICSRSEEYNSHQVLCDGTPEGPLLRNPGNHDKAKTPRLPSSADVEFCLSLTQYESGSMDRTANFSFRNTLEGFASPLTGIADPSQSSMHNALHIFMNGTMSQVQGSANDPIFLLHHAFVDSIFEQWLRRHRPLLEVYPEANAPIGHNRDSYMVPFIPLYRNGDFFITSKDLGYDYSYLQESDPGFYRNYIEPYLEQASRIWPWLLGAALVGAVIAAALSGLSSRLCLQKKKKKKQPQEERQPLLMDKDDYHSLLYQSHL
Procedure: A 6-well plate containing 5 × 10^3 B16F10 cells per well was incubated (37 °C and 5% CO2) for 1 day. […] Stimulators (1 μM α-MSH and 200 μM IBMX) were added after 1 h, and the plate was incubated (37 °C and 5% CO2) for 72 h. After washing with PBS, 100 μL lysis buffer consisting of 1% Triton X-100, 1 mM phenylmethylsulfonyl fluoride, and 50 mM sodium phosphate buffer (pH 6.5) in a volume ratio of 1:1:18 was added to each well. Following an incubation period of 30 min at −80 °C, the cell lysates were centrifuged at 12,000× g for 10 min at 4 °C to obtain the supernatants. […] Each assay was independently performed three times.

mushroom TYR [4] = molecular target: T1, mushroom TYR; test: Mushroom TYR activity assay with and without CuSO4; assay type: biochemical; conditions: 20 μM derivative, L-tyrosine
Procedure: To determine whether copper(II) ions influence the TYR-inhibitory activity of 2-MMBI derivatives, the effects of these derivatives on mushroom TYR activity were measured with and without CuSO4. Briefly, mushroom TYR aqueous solution (20 μL, 1 unit/μL) was mixed with 2-MMBI derivatives (1, 3, and 8–10) (10 μL, final concentration: 20 μM) and with the substrate solution (170 μL), comprising 17.2 mM phosphate buffer (pH 6.5) and 345 μM L-tyrosine, in the presence or absence of CuSO4 (50 μL, final concentration: 50 μM) in each well of a 96-well plate. […] Each assay was carried out independently in triplicate.

[5] = DPPH radical removal assay; conditions: 500 μM; 30 min in the dark
Procedure: An aliquot (20-μL DMSO solution) of a test sample (5 mM 2-MMBI derivatives 1–10 and 5 mM vitamin C [positive material]) was added to each well of a 96-well microplate containing 180 μL DPPH methanol solution (0.2 mM). After the mixture was left in the dark at 22 °C for 30 min, the optical density at 517 nm was recorded using a VersaMax™ reader. Each experiment was conducted independently in triplicate.

ABTS●+ scavenging assay = conditions: 100 μM
Procedure: A 2.45 mM K2S2O8 aqueous solution was mixed with a 7-mM ABTS aqueous solution in a 1:1 volume ratio. The mixture was left at 20 °C in the dark for 19 h. To adjust the adequate absorbance (0.70 ± 0.01) at 732 nm, the mixture was diluted with methanol. The diluted ABTS^●+ mixture (90 μL) in each well of a 96-well plate was mixed with a test sample (2-MMBI derivatives 1–10 and Trolox [positive material]; 10 μL in EtOH/DMSO [9/1 (v/v)] solution). All test samples were tested at a final concentration of 100 μM. Prior to the measurement of well optical density at 732 nm at 1-min intervals for 10 min using a VersaMax™ reader, the test sample-ABTS^●+ mixture was stored for 2 min in the dark. Each experiment was conducted independently in triplicate.

Structure (SMILES): O=[N+]([O-])c1ccc2[nH]c(CS)nc2c1 [Derivative 6, (5-Nitro-1H-benzo[d]imidazol-2-yl)methanethiol]
- ROS scavenging activity [1]: stronger ROS scavenging efficacy than the other derivatives
- copper chelating activity [2]: 35%
- depigmentation of zebrafish larvae at 0.03 and 0.1 mM (zebrafish larvae; 0.03 and 0.1 mM, 48 h): did not exhibit significant depigmentation

- inhibition mechanism (mushroom TYR [3]): mixed TYR inhibitors
- inhibition at 20 µM (mushroom TYR [4]; CuSO4 50 μM added externally, read-out: inhibition of mushroom TYR activity with CuSO4): 63%
- inhibition at 20 µM (mushroom TYR [4]; no CuSO4 added externally, read-out: inhibition of mushroom TYR activity without CuSO4): 86 to 89%
Structure (SMILES): Cc1ccc2[nH]c(CS)nc2c1 [Derivative 8, (5-Methyl-1H-benzo[d]imidazol-2-yl)methanethiol]
- effect on B16F10 cellular melanin production at 10 μM (B16F10 cells): inhibited melanin production more strongly than kojic acid
- effect on B16F10 cellular melanin production at three concentrations (B16F10 cells; 2, 5, and 10 μM): significantly decreased the melanin levels increased by the stimulators in a concentration-dependent manner
- depigmentation of zebrafish larvae at 0.03 mM (zebrafish larvae; 0.03 mM, compared with kojic acid 20 mM, 48 h): much stronger depigmentation efficacy than kojic acid
- effect on B16F10 cellular TYR activity (B16F10 cellular TYR): significantly reduced stimulator-enhanced cellular TYR activity in a dose-dependent manner

Structure (SMILES): O=c1cc(CO)occ1O [Kojic acid, reference compound]
- effect on B16F10 cellular melanin production at 10 μM (B16F10 cells): decreased the stimulator-induced melanin levels
- copper chelating activity [2]: 27%
- depigmentation of zebrafish larvae, kojic acid (zebrafish larvae; 20 mM, 48 h, compared to control): significantly reduced melanin pigments
- pigmentation area of zebrafish larvae (CS analyzer, dorsal and lateral views) (zebrafish larvae; derivatives 0.03 and 0.1 mM, kojic acid 20 mM): significantly reduced pigmentation

Structure (SMILES): O=C1O[C@H]([C@@H](O)CO)C(O)=C1O [L-ASCORBIC acid, L-ascorbic acid]
- DPPH radical scavenging activity [5]: 97%

Structure (SMILES): NC(=S)Nc1ccccc1 [PTU, phenylthiourea]
- copper chelating activity [2]: 37%

Structure (SMILES): Cc1c(C)c2c(c(C)c1O)CCC(C)(C(=O)O)O2 (stereo not drawn) [Trolox, reference compound]
- ROS scavenging activity [1]: highest ROS scavenging activity
- ABTS●+ inhibition (ABTS●+ scavenging assay): 99%
